Columns and labels:
Solubility at pH 7.4 = type: physicochemical
mTOR = mTOR (Homo sapiens, UniProt P42345); assay: mTOR activity (no method described); type: biochemical
[1] = Microsomal stability (rat); type: in vitro ADME; settings: rat microsomes
PAMPA permeability = type: in vitro ADME
[2] = system: Asexual parasites of P. falciparum strain 3D7; assay: In vitro drug activity on asexual parasites (SYBR Green assay); type: cell-based, Plasmodium falciparum
Protocol: Cell culture. Asexual parasites of P. falciparum strain 3D7 were cultured as described previously [Trager W, et al., Journal of Parasitology 2005, 91: 484-486], Stage III-V gametocytes were selected and enriched with 3-day treatment with 50 mM N-acetylglucosamine (NAG) and the following Percoll density gradient centrifugation after gametocyte production [Tanaka T Q, et al., Molecular and Biochemical Parasitology, 2011, 111: 160-163], Gametocytes of HB3 and Dd2 strains were produced and then set up for assay in a similar process. HepG2 cells (ATCC, cat. no. 77400) were cultured in 175-cm^2 tissue culture flasks with 30 ml growth medium at 37° C. in a 5% CO2 humidified atmosphere. Growth medium was made with Dulbecco's Modified Eagle Medium with 10% fetal bovine serum (FBS). Growth medium was replaced every other day and cells were passed at 75% confluence.
Asexual parasites of P. falciparum strain 3D7 were cultured as described previously (Trager, W. et al., J. Parasitol. 2005, 91(3): 484-486). Drug activity on asexual stage parasites was tested using a SYBR Green assay as described previously (Eastman, R. T. et al., Antimicrob. Agents Chemother. 2013, 57(1): 425-435; Smilkstein, M. et al., Antimicrob. Agents Chemother. 2004, 48(5): 1803-1806). Briefly, parasites were diluted to 0.5% parasitemia in complete culture medium with 2% hematocrit and drugs diluted in DMSO (≤0.5%) and were loaded into a 96-well plate (200 μl/well). No drug and RBC alone wells were included as positive and background controls, respectively, and each testing condition was examined in duplicated. After 72 h incubation under the standard culture condition and a freeze-thaw lysis step at −80° C. and room temperature, 100 μl/well of lysis buffer containing SYBR Green I was added to the parasite culture and incubated for 30 min at room temperature. The fluorescence of each well was measured at 520 nm following excitation at 490 nm using a FLUOstar Optima™ microplate reader (BMG Labtech).

SMILES	Sol @ pH 7.4 (Solubility at pH 7.4)	mTOR (mTOR)	Microsomal Stability (rat) T1/2 [1]	PAMPA Permeability (PAMPA permeability)	EC50 [2]
O=C(NCC(F)(F)F)c1ccc(-n2c(=O)ccc3cnc4ccc(-c5ccc(Cl)cc5)cc4c32)cc1 [Compound 89]	<1 ug/mL	2.689 µM	>30 min	< 1 ×10⁻⁶ cm/s	52.1 nM
CN(C)CCNC(=O)c1ccc(-n2c(=O)ccc3cnc4ccc(-c5ccc(Cl)cc5)cc4c32)cc1 [Compound 90]	13.6 ug/mL	19.84 µM	>30 min	802 ×10⁻⁶ cm/s	74.1 nM
O=C(NC1CC1)c1ccc(-n2c(=O)ccc3cnc4ccc(-c5ccc(F)cc5)cc4c32)cc1 [Compound 91]	<1 ug/mL	4.415 µM	>30 min	54.2 ×10⁻⁶ cm/s	33 nM
O=C(NC1CC1)c1ccc(-n2c(=O)ccc3cnc4ccc(-c5ccc(Cl)cc5)nc4c32)cc1 [Compound 93]	<1 ug/mL	0.4507 µM	>30 min	76.3 ×10⁻⁶ cm/s	27.9 nM
O=C(NC1CN(CCO)C1)c1ccc(-n2c(=O)ccc3cnc4ccc(-c5ccc(Cl)cc5)cc4c32)cc1 [Compound 94]	13.6 ug/mL	4.188 µM	>30 min	1.9 ×10⁻⁶ cm/s	24.9 nM
CN(C)CCN1CCN(C(=O)c2ccc(-n3c(=O)ccc4cnc5ccc(-c6ccc(Cl)cc6)cc5c43)cc2)CC1 [Compound 95]	54.7 ug/mL	1.731 µM	>30 min	674 ×10⁻⁶ cm/s	15.7 nM
O=C(NC1CCNC1)c1ccc(-n2c(=O)ccc3cnc4ccc(-c5ccc(Cl)cc5)cc4c32)cc1 (stereo not shown) [Compound 96]	11.4 ug/mL	1.291 µM	>30 min	7.8 ×10⁻⁶ cm/s	37.3 nM
NC1(c2ccc(-c3ccc4ncc5ccc(=O)n(-c6ccc(C(=O)NC7CC7)cc6)c5c4c3)cc2)CC1 [Compound 97]	7.1 ug/mL	1.4 µM	>30 min	35.8 ×10⁻⁶ cm/s	101 nM
O=C(O)c1cc(Cl)ccc1-c1ccc2ncc3ccc(=O)n(-c4ccc(C(=O)N5CCOCC5)cc4)c3c2c1 [Compound 135]	>80.0 ug/mL	inactive	>30.0 min	3 ×10⁻⁶ cm/s	77800 nM
CC(C)(C)c1ccc(-c2ccc3ncc4ccc(=O)n(-c5ccc(C(=O)N6CCOCC6)cc5)c4c3c2)cc1 [Compound 196]	<1 ug/mL	100 µM	18 min	85.9 ×10⁻⁶ cm/s	–
CNCc1ccc(-c2ccc3ncc4ccc(=O)n(-c5ccc(C(=O)N6CCOCC6)cc5)c4c3c2)cc1 [Compound 198]	>75 ug/mL	13.84 µM	>30 min	6.1 ×10⁻⁶ cm/s	264 nM
COc1cc(C(=O)N2CCOCC2)ccc1-n1c(=O)ccc2cnc3ccc(-c4ccc(Cl)cc4)cc3c21 [Compound 199]	1.4 ug/mL	16.51 µM	5.6 min	1440 ×10⁻⁶ cm/s	109 nM
CC(C)c1ccc(-c2ccc3ncc4ccc(=O)n(-c5ccc(C(=O)N6CCOCC6)cc5)c4c3c2)cc1 [Compound 201]	<1 ug/mL	17.28 µM	12.6 min	13.8 ×10⁻⁶ cm/s	1620 nM
CN(C)CCOc1ccc(-c2ccc3ncc4ccc(=O)n(-c5ccc(C(=O)N6CCOCC6)cc5)c4c3c2)cc1 [Compound 202]	57.8 ug/mL	3.267 µM	>30 min	415 ×10⁻⁶ cm/s	120 nM
O=C(NC1CC1)c1ccc(-n2c(=O)ccc3cnc4ccc(-c5ccc(F)c(O)c5)cc4c32)cc1 [Compound 203]	1.2 ug/mL	0.5128 µM	29.3 min	750 ×10⁻⁶ cm/s	17.2 nM
O=C(NC1CC1)c1ccc(-n2c(=O)ccc3cnc4ccc(-c5ccc(Cl)c(O)c5)cc4c32)cc1 [Compound 204]	<1 ug/mL	0.2571 µM	>30 min	< 1 ×10⁻⁶ cm/s	14.3 nM
O=C(NCCCN1CCCC1)c1ccc(-n2c(=O)ccc3cnc4ccc(-c5ccc(Cl)cc5)cc4c32)cc1 [Compound 206]	44.1 ug/mL	19.64 µM	7.1 min	428 ×10⁻⁶ cm/s	48.9 nM
CC(N)c1ccc(-c2ccc3ncc4ccc(=O)n(-c5ccc(C(=O)N6CCOCC6)cc5)c4c3c2)cc1 (stereo not shown) [Compound 207]	58.1 ug/mL	0.1688 µM	>30 min	< 1 ×10⁻⁶ cm/s	145 nM
CN(C)C(=O)c1ccc(-n2c(=O)ccc3c[n+]([O-])c4ccc(-c5ccc(Cl)cc5)cc4c32)cc1 [Compound 208]	35.5 ug/mL	21.75 µM	13.2 min	248 ×10⁻⁶ cm/s	65.9 nM
CCCCNC(=O)c1ccc(-n2c(=O)ccc3cnc4ccc(-c5ccc(Cl)cc5)cc4c32)cc1 [Compound 209]	<1 ug/mL	2.492 µM	4 min	< 1 ×10⁻⁶ cm/s	538 nM
O=C(c1ccc(-n2c(=O)ccc3cnc4ccc(-c5cccc(CCN6CCCC6)c5)cc4c32)cc1)N1CCOCC1 [Compound 211]	>83 ug/mL	43.09 µM	>30 min	227 ×10⁻⁶ cm/s	3880 nM
CN(C)CCc1cccc(-c2ccc3ncc4ccc(=O)n(-c5ccc(C(=O)N6CCOCC6)cc5)c4c3c2)c1 [Compound 212]	>79 ug/mL	15.8 µM	>30 min	189 ×10⁻⁶ cm/s	3890 nM
CC(C)NC(=O)c1ccc(-n2c(=O)ccc3cnc4ccc(-c5ccc(Cl)cc5)cc4c32)cc1 [Compound 213]	<1 ug/mL	1.299 µM	18.9 min	< 1 ×10⁻⁶ cm/s	130 nM
O=C(NCCCO)c1ccc(-n2c(=O)ccc3cnc4ccc(-c5ccc(Cl)cc5)cc4c32)cc1 [Compound 214]	<1 ug/mL	0.3394 µM	21.2 min	333 ×10⁻⁶ cm/s	18.8 nM
Cc1cc(C(=O)NC2CC2)ccc1-n1c(=O)ccc2cnc3ccc(-c4ccc(F)cc4)cc3c21 [Compound 223]	3.4 ug/mL	7.119 µM	–	1180 ×10⁻⁶ cm/s	58 nM
Cc1cc(C(=O)NC2CC2)ccc1-n1c(=O)ccc2cnc3ccc(-c4ccc(C5(N)CC5)cc4)cc3c21 [Compound 224]	>74 ug/mL	100 µM	–	< 1 ×10⁻⁶ cm/s	46000 nM
